Results as given in US8445691B2, “Heterocyclic thiosubstituted alkanol derivatives” (Bayer CropScience AG, priority 2010, dated 2013).

Legend:
[1] = test system: Blumeria graminis f.sp. hordei; assay: Blumeria graminis test (barley) / protective; type: in vivo; settings: 500 ppm active ingredient, protective spray on young barley plants, evaluation 7 days after inoculation; 0% = control, 100% = no infection
Protocol: Blumeria graminis Test (Barley)/Protective
(§1) • Solvent: 49 parts by weight of N,N-dimethylacetamide • Emulsifier: 1 part by weight of alkylaryl polyglycol ether
To produce an appropriate active ingredient formulation, 1 part by weight of active ingredient is mixed with the specified amounts of solvent and emulsifier, and the concentrate is diluted with water to the desired concentration. To test for protective activity, young plants are sprayed with the formulation of active ingredient at the stated application rate. After the spray coating has dried on, the plants are dusted with spores of Blumeria graminis f.sp. hordei. The plants are placed in a greenhouse at a temperature of about 18° C. and a relative air humidity of about 80% to promote the development of mildew pustules. Evaluation follows 7 days after the inoculation. 0% means an efficacy which corresponds to that of the control, whereas an efficacy of 100% means that no infection is observed.

Leptosphaeria nodorum = Leptosphaeria nodorum test (wheat) / protective; type: in vivo; settings: 500 ppm active ingredient, protective spray on young wheat plants, evaluation 8 days after inoculation; 0% = control, 100% = no infection
Protocol: Leptosphaeria nodorum Test (Wheat)/Protective
as §1
To produce an appropriate active ingredient formulation, I part by weight of active ingredient is mixed with the specified amounts of solvent and emulsifier, and the concentrate is diluted with water to the desired concentration. To test for protective activity, young plants are sprayed with the formulation of active ingredient at the stated application rate. After the spray coating has dried on, the plants are sprayed with spores with a spore suspension of Leptosphaeria nodorum. The plants remain in an incubation cabin at 20° C. and 100% relative air humidity for 48 hours. The plants are placed in a greenhouse at a temperature of about 22° C. and a relative air humidity of about 80%. Evaluation follows 8 days after the inoculation. 0% means an efficacy which corresponds to that of the control, whereas an efficacy of 100% means that no infection is observed.

[2] = logP by reversed-phase HPLC (EEC Directive 79/831 Annex V.A8); type: physicochemical; settings: method [a]: LC-MS, acidic range pH 2.7, 0.1% aqueous formic acid / acetonitrile, linear gradient 10% to 95% acetonitrile
Protocol: The logP values were measured in accordance with EEC Directive 79/831 Annex V.A8 by HPLC (High Performance Liquid Chromatography) using reversed-phase columns (C 18) by the following methods:
[a] The LC-MS determination in the acidic range is effected at pH 2.7 with 0.1% aqueous formic acid and acetonitrile (contains 0.1% formic acid) as eluents; linear gradient from 10% acetonitrile to 95% acetonitrile.

Alternaria solani = assay: Alternaria test (tomato) / protective; type: in vivo; settings: 500 ppm active ingredient, protective spray on young tomato plants, evaluation 7 days after inoculation; 0% = control, 100% = no infection
Protocol: Alternaria Test (Tomato)/Protective
(§2) • Solvent: 49 parts by weight of N,N-dimethylformamide • Emulsifier: 1 part by weight of alkylaryl polyglycol ether
To produce an appropriate active ingredient formulation, 1 part by weight of active ingredient is mixed with the specified amounts of solvent and emulsifier, and the concentrate is diluted with water to the desired concentration. To test for protective activity, young tomato plants are sprayed with the active ingredient formulation at the stated application rate. One day after the treatment, the plants are inoculated with a spore suspension of Alternaria solani and are then left to stand at 100% relative humidity and 22° C. for 24 h. Subsequently, the plants are left to stand at 96% relative air humidity and a temperature of 20° C. Evaluation follows 7 days after the […]. 0% means an efficacy which corresponds to that of the control, whereas an efficacy of 100% means that no infection is observed.

Sphaerotheca fuliginea = assay: Sphaerotheca test (cucumber) / protective; type: in vivo; settings: 500 ppm active ingredient, protective spray on young cucumber plants, evaluation 7 days after inoculation; 0% = control, 100% = no infection
Protocol: Sphaerotheca Test (Cucumber)/Protective
as §2
To produce an appropriate active ingredient formulation, 1 part by weight of active ingredient is mixed with the specified amounts of solvent and emulsifier, and the concentrate is diluted with water to the desired concentration. To test for protective activity, young cucumber plants are sprayed with the formulation of active ingredient at the stated application rate. 1 day after the treatment, the plants are inoculated with a spore suspension of Sphaerotheca fuliginea. The plants are then placed in a greenhouse at 70% relative air humidity and a temperature of 23° C. Evaluation follows 7 days after the inoculation. 0% means an efficacy which corresponds to that of the control, whereas an efficacy of 100% means that no infection is observed.

Row | chromatographic logP ([2]; reversed-phase C18 HPLC column) | logP ([2]; C18 reversed phase) | SMILES | efficacy [1] [%] | efficacy (Leptosphaeria nodorum) [%] | efficacy (Alternaria solani) [%] | efficacy (Sphaerotheca fuliginea) [%]
1 | – | – | CC(C)(C)C(O)(CSc1ccc(Br)cc1)c1cncs1 (stereo not shown) [Compound 1, 1-[(4-bromophenyl)sulphanyl]-3,3-dimethyl-2-(1,3-thiazol-5-yl)butan-2-ol] | 89 | 92 | – | –
2 | 3.27 | – | CC(CF)(CF)C(O)(CSc1ccc(Br)cc1)c1cncs1 (stereo not shown) [Compound 3] | 100 | 100 | – | –
3 | – | log p 3.76^[a] | CC(C)(C)C(O)(CSc1ccc(C(F)(F)F)cc1)c1cncs1 (stereo not shown) [Compound 57] | 80 | 90 | 100 | 80
